Source: publication PMC7659345, “Viral rhodopsins 1 are an unique family of light-gated cation channels” (Nature Communications, 2020)

Columns and labels:
OLPVR1 = molecular target: T1, OLPVR1 (Organic Lake phycodnavirus 1, UniProt Z9N4O7KYY5); experiment: X-ray crystal structure, […] A (type A, P21212) and […] A (type B, P1); format: binding; conditions: covalent Schiff base to K204; all-trans 15-anti; crystals grown in meso with monopalmitolein, pH 8.0 (7AKY); also 7AKX (monoolein, pH 7.0)
T1 construct: residues 2-223 resolved; one (P21212) or two (P1) molecules per asymmetric unit
T1 sequence (Z9N4O7KYY5 1-223): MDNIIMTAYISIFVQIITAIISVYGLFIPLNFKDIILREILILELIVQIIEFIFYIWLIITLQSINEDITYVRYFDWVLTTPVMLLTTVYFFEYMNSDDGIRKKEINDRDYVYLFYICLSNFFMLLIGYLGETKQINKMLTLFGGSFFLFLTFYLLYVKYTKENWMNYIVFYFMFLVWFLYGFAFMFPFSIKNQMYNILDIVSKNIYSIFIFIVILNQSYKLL

VirChR1 = molecular target: T2, VirChR1 (marine metagenome, UniProt Z9TV22U1G0); experiment: UV-visible absorption of purified holoprotein; format: binding; conditions: covalent Schiff base (by homology); pH 7.5; all-trans-retinal added to E. coli culture
T2 sequence (Z9TV22U1G0 1-242): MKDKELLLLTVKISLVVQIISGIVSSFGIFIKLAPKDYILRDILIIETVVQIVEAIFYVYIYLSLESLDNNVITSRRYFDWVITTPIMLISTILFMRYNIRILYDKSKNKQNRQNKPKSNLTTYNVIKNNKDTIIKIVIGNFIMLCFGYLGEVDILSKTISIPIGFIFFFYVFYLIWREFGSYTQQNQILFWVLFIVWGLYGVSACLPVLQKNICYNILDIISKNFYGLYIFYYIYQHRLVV

## CC1=C(/C=C/C(C)=C/C=C/C(C)=C/C=O)C(C)(C)CCC1 [all-trans retinal]
OLPVR1
  X-ray crystal structure, 1.4 A (type A, P21212) and 1.6 A (type B, P1): all-trans retinal (ATR) covalently bound to K204 (K257 in CrChR2
VirChR1
  UV-visible absorption of purified holoprotein: Both OLPVR1 and VirChR1 show absorption spectra sensitive to blue light
